Results taken from patent US5607937A, “Piperazides of substituted phenylalanine derivatives as thrombin inhibitors” (priority 1993, dated 1997).

Legend:
[1] = test system: coagulation in human plasma; experiment: prothrombin time (PT, Quick value) in human plasma
thrombin = thrombin (Bos taurus, UniProt P00735); experiment: biochemical
plasma kallikrein = plasma kallikrein (Homo sapiens, UniProt P03952); experiment: inhibition of plasma kallikrein, dissociation constant Ki
[2] = test system: coagulation in human plasma; experiment: activated partial thromboplastin time (aPTT) in human plasma
tPA = tPA (Homo sapiens, UniProt P00750); experiment: inhibition of tPA, dissociation constant Ki
tPA, sequence (P00750 36-562): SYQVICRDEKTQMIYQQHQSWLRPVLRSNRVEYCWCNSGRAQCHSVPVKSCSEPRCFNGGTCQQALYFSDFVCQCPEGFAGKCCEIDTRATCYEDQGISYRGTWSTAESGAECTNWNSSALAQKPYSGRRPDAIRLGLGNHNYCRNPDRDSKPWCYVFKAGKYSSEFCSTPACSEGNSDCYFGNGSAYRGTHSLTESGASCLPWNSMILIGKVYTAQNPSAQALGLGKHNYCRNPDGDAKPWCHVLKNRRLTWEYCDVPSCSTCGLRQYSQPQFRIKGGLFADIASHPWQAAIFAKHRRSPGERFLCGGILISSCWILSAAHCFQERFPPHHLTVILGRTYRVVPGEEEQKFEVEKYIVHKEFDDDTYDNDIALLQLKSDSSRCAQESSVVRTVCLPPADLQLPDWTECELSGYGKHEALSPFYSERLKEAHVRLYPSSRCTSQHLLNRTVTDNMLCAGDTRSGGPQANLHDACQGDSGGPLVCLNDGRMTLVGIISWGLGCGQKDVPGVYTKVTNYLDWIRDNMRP

[3] = test system: coagulation in human plasma; experiment: thrombin time (TT) in human plasma
glandular kallikrein = glandular kallikrein (Sus scrofa, UniProt P00752); experiment: inhibition of glandular kallikrein, dissociation constant Ki
glandular kallikrein, sequence (P00752 8-246): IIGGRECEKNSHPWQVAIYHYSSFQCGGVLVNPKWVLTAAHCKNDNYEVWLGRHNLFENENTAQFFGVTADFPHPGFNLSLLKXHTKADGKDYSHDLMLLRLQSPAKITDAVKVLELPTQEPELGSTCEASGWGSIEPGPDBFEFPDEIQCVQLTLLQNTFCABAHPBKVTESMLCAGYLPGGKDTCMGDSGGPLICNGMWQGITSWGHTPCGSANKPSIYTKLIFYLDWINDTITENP

[4] = plasma concentration in rats after oral administration; format: in vivo; conditions: rat
Experimental: A physiological NaCl solution of the substance to be tested was submitted to high pressure liquid chromatography (HPLC) in order to determine its characteristic substance-specific retention time with the chosen test conditions.
The substance to be tested was diluted in vitro in rat plasma. This solution was also submitted to HPLC to see whether the characteristic peak of the substance once again appeared at the substance-specific retention time.
Blood samples were taken at time intervals of 15 minutes, from which plasma samples were prepared by centrifugation; those samples were also submitted to HPLC to see whether the characteristic peak of the substance appeared again at the substance-specific retention time.
After administration, blood samples were taken from the test animals at time intervals from 2 to maximally 360 minutes and the blood level of the compounds to be tested was determined by HPLC.

[5] = plasma concentration in rats after intravenous administration; format: in vivo; conditions: rat; for concentration at 5 min / concentration at 0.25 h / concentration at 0.5 h / concentration at 1 h: plasma, iv; for concentration at 5 min / concentration at 0.25 h / concentration at 0.5 h / concentration at 1 h / Concentration in plasma: i.v. 1 mg/kg; for concentration at 0.25 h: 15 min; for concentration at 0.5 h: 30 min; for concentration at 1 h: 60 min
[6] = plasma concentration in rats after rectal administration; format: in vivo; conditions: plasma, rat; for concentration at 0.5 h: 30 min; for concentration at 1 h: 60 min; for concentration at 2 h: 120 min; for concentration at 3 h: 180 min
factor XIIa = target: T1, factor XIIa (Homo sapiens, UniProt P00748); experiment: inhibition of factor XIIa, dissociation constant Ki
T1 sequence (P00748 373-615 limits assumed): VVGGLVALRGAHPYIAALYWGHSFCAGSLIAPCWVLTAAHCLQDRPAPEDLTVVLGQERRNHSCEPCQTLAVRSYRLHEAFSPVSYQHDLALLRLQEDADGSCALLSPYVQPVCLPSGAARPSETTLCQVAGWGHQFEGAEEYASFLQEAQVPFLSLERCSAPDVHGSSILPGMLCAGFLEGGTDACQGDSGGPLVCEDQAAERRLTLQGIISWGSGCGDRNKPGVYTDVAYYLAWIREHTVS

[7] = concentration in rat plasma in the anticoagulant study after rectal application; format: in vivo; conditions: for concentration at 0.5 h / concentration at 1 h / concentration at 2 h / concentration at 3 h: plasma; for concentration at 0.5 h: 30 min; for concentration at 1 h: 60 min; for concentration at 2 h: 120 min; for concentration at 3 h: 180 min; for Concentration in plasma: 0 min
[8] = test system: coagulation in rat plasma; experiment: thrombin time in rat plasma after rectal application; format: in vivo
Experimental: (§1) After rectal administration of the compounds to be tested, the anticoagulant effect was determined in the plasma of experimental animals.

in vivo = conditions: rat, intraduodenal 100 mg/kg; for Concentration in plasma: hydrochloride, 100 mg/kg
trypsin = target: T2, trypsin (Bos taurus, UniProt P00760); experiment: inhibition of trypsin, dissociation constant Ki; format: biochemical; design: thrombin and the related enzymes trypsin, plasmin, factor Xa, factor XIIa; conditions: Table 1; read-out: Ki, Trypsin
T2 sequence (P00760 24-246): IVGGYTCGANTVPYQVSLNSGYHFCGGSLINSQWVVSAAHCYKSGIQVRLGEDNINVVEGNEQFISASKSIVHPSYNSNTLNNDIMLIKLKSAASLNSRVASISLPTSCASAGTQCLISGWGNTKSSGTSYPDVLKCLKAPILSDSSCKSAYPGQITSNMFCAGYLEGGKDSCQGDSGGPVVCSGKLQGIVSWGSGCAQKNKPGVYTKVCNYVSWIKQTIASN
Experimental: The biological activity of the compounds of the present invention was determined in vitro as well as in vivo.

[9] = test system: coagulation in rat plasma; experiment: aPTT in rat plasma after rectal application; format: in vivo
Experimental: as §1

plasmin = plasmin (Homo sapiens, UniProt P00747); experiment: inhibition of plasmin, dissociation constant Ki
plasmin, sequence (P00747 581-810 limits assumed): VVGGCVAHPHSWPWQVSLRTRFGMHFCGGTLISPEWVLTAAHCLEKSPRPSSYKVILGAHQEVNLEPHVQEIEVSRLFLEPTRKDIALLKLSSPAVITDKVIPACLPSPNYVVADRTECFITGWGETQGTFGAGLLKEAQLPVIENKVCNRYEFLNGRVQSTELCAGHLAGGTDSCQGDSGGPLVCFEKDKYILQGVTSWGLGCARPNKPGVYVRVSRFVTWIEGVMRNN
plasmin, sequence (P00747 97-580 partner limits assumed): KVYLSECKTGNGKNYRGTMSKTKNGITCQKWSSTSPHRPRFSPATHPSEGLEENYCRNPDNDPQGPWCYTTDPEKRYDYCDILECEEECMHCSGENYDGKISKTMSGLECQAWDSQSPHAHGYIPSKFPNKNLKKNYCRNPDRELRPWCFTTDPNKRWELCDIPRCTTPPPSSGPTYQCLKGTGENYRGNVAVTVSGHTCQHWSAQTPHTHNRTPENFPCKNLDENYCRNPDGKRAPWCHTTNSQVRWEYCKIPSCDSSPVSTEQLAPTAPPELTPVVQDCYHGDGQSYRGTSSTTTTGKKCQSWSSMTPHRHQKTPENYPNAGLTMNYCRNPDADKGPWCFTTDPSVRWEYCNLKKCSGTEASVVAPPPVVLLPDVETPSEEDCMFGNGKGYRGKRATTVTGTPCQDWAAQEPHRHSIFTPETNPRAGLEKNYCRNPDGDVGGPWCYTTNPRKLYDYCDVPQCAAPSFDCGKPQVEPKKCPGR

plasma kallikrein, sequence (P03952 391-638 limits assumed, species assumed): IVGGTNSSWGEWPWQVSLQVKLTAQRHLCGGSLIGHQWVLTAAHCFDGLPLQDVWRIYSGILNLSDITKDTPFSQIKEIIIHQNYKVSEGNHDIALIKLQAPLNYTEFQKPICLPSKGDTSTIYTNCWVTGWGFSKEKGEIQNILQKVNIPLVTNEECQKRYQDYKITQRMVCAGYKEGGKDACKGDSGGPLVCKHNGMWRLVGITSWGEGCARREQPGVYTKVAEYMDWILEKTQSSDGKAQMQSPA
plasma kallikrein, sequence (P03952 20-390 partner limits assumed, species assumed): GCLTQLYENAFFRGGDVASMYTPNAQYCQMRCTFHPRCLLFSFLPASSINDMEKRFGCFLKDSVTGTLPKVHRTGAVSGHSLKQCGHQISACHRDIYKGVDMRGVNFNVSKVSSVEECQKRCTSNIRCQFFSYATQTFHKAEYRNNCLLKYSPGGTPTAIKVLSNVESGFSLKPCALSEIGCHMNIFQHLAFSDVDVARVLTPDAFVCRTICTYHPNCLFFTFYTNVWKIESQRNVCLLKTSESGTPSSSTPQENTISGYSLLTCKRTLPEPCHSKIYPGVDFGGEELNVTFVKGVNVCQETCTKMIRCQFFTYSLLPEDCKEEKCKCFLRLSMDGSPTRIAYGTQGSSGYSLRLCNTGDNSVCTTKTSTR

Structure (SMILES): CCOC(=O)N1CCN(C(=O)C(Cc2cccc(C(=N)N)c2)NS(=O)(=O)c2ccc3ccccc3c2)CC1 (racemic) [X, N-α-(2-naphthylsulfonyl)-(D,L)-3-amidinophenylalanine-4-ethoxycarbonyl piperazide, reference compound]
- Concentr. to double the Prothrombin time [1]: 45 µmol/L
- Ki (thrombin): 0.67 µM
- Ki (plasma kallikrein): 30 µM
- Concentr. to double the aPTT [2]: 20 µmol/L
- Ki (tPA): 370 µM
- Concentr. to double the Thrombin time [3]: 4.1 µmol/L
- Ki (glandular kallikrein): > 1000 µM
- concentration at 0.5 h ([4]; plasma, oral 50 mg/kg, 30 min): 33 ng/mL
- concentration at 1 h ([4]; plasma, oral 50 mg/kg, 60 min): 10 ng/mL
- Concentration in plasma ([4]; oral 50 mg/kg, 120 min): 0 ng/mL
- Concentration in plasma ([4]; oral 50 mg/kg, 180 min): 0 ng/mL
- Concentration in plasma ([4]; oral 50 mg/kg, 240 min): 0 ng/mL
- Concentration in plasma ([4]; oral 50 mg/kg, 300 min): 0 ng/mL
- concentration at 5 min [5]: 812 ng/mL
- concentration at 0.25 h [5]: 169 ng/mL
- concentration at 0.5 h [5]: 40 ng/mL
- concentration at 1 h [5]: 8 ng/mL
- Concentration in plasma ([5]; 120 min): 0 ng/mL
- Concentration in plasma ([5]; 180 min): 0 ng/mL
- concentration at 0.5 h ([6]; rectal 100 mg/kg): 3260 ng/mL
- concentration at 1 h ([6]; rectal 100 mg/kg): 2370 ng/mL
- concentration at 2 h ([6]; rectal 100 mg/kg): 1800 ng/mL
- concentration at 3 h ([6]; rectal 100 mg/kg): 898 ng/mL
- concentration at 4 h ([6]; rectal 100 mg/kg, 240 min): 626 ng/mL
- concentration at 5 h ([6]; rectal 100 mg/kg, 300 min): 592 ng/mL
- concentration at 6 h ([6]; rectal 100 mg/kg, 360 min): 448 ng/mL
- Ki (factor XIIa): 210 µM

Structure (SMILES): CS(=O)(=O)N1CCN(C(=O)[C@H](Cc2cccc(C(=N)N)c2)NS(=O)(=O)c2ccc3ccccc3c2)CC1.Cl [Compound 5, Nα-(2-naphthylsulfonyl)-3-amidino-(L)-phenylalanine-4methylsulfonylpiperazide hydrochloride]
- Concentr. to double the Prothrombin time [1]: 0.39 µmol/L
- concentration to double the PT [1]: ≤ 1 μmol/1
- concentration at 0.5 h ([7]; rectal 5 mg/kg): 168 ng/mL
- concentration at 1 h ([7]; rectal 5 mg/kg): 65 ng/mL
- concentration at 2 h ([7]; rectal 5 mg/kg): 82 ng/mL
- concentration at 3 h ([7]; rectal 5 mg/kg): 10 ng/mL
- concentration at 0.5 h ([7]; rectal 20 mg/kg): 1570 ng/mL
- concentration at 1 h ([7]; rectal 20 mg/kg): 983 ng/mL
- concentration at 2 h ([7]; rectal 20 mg/kg): 380 ng/mL
- concentration at 3 h ([7]; rectal 20 mg/kg): 195 ng/mL
- Concentration in plasma ([7]; rectal 5 mg/kg): 0 ng/mL
- Concentration in plasma ([7]; rectal 20 mg/kg): 0 ng/mL
- Ki (plasma kallikrein): 9.2 µM
- Concentr. to double the aPTT [2]: 0.26 µmol/L
- concentration to double the aPTT [2]: ≤ 1 μmol/1
- Clotting time, Thrombin time ([8]; rectal 5 mg/kg, 0 min): 51.5 s
- Clotting time, Thrombin time ([8]; rectal 5 mg/kg, 30 min): > 300 s
- Clotting time, Thrombin time ([8]; rectal 5 mg/kg, 60 min): 255 s
- Clotting time, Thrombin time ([8]; rectal 5 mg/kg, 120 min): 137.5 s
- Clotting time, Thrombin time ([8]; rectal 5 mg/kg, 180 min): 95 s
- Clotting time, Thrombin time ([8]; rectal 20 mg/kg, 0 min): 153 s
- Clotting time, Thrombin time ([8]; rectal 20 mg/kg, 30 min): > 300 s
- Clotting time, Thrombin time ([8]; rectal 20 mg/kg, 60 min): > 300 s
- Clotting time, Thrombin time ([8]; rectal 20 mg/kg, 120 min): > 300 s
- Clotting time, Thrombin time ([8]; rectal 20 mg/kg, 180 min): > 300 s
- Ki (tPA): 190 µM
- Concentr. to double the Thrombin time [3]: 0.034 µmol/L
- concentration to double the TT [3]: less than 10^-7 mol/1
- concentration at 3 h (in vivo; plasma, 180 min): 297 ng/mL
- concentration at 4 h (in vivo; plasma, 240 min): 530 ng/mL
- concentration at 5 h (in vivo; plasma, 300 min): 137 ng/mL
- concentration at 6 h (in vivo; plasma, 360 min): 119 ng/mL
- Concentration in plasma (in vivo; 30 min): 8744 ng/mL
- Concentration in plasma (in vivo; 30 min, listed as 5*): 1576 ng/mL
- Concentration in plasma (in vivo; 60 min): 9314 ng/mL
- Concentration in plasma (in vivo; 60 min, listed as 5*): 1900 ng/mL
- Concentration in plasma (in vivo; 120 min): 8612 ng/mL
- Concentration in plasma (in vivo; 120 min, listed as 5*): 1763 ng/mL
- Ki (glandular kallikrein): > 1000 µM
- resorption in words ([4]; oral): only slightly resorbed
- Ki (trypsin): 0.067 µM
- concentration at 5 min [5]: 879 ng/mL
- concentration at 0.25 h [5]: 367 ng/mL
- concentration at 0.5 h [5]: 151 ng/mL
- concentration at 1 h [5]: 50 ng/mL
- elimination in words ([5]; i.v.): eliminated at comparable rate
- Concentration in plasma ([5]; 120 min): 0 ng/mL
- Concentration in plasma ([5]; 180 min): 0 ng/mL
- concentration at 0.5 h ([6]; rectal 20 mg/kg): 1650 ng/mL
- concentration at 1 h ([6]; rectal 20 mg/kg): 958 ng/mL
- concentration at 2 h ([6]; rectal 20 mg/kg): 299 ng/mL
- concentration at 3 h ([6]; rectal 20 mg/kg): 192 ng/mL
- Clotting time, aPTT ([9]; rectal 5 mg/kg, 0 min): 21.2 s
- Clotting time, aPTT ([9]; rectal 5 mg/kg, 30 min): 34.5 s
- Clotting time, aPTT ([9]; rectal 5 mg/kg, 60 min): 30.5 s
- Clotting time, aPTT ([9]; rectal 5 mg/kg, 120 min): 27.5 s
- Clotting time, aPTT ([9]; rectal 5 mg/kg, 180 min): 25.3 s
- Clotting time, aPTT ([9]; rectal 20 mg/kg, 0 min): 22 s
- Clotting time, aPTT ([9]; rectal 20 mg/kg, 30 min): 65 s
- Clotting time, aPTT ([9]; rectal 20 mg/kg, 60 min): 62.5 s
- Clotting time, aPTT ([9]; rectal 20 mg/kg, 120 min): 36 s
- Clotting time, aPTT ([9]; rectal 20 mg/kg, 180 min): 29.7 s
- Ki (plasmin): 9 µM
- Ki (factor XIIa): 52 µM
